Tests used:
[1] = test system: follicle dermal papilla cells; assay: Reactive oxygen species (ROS) activity in follicle dermal papilla cells; type: cell-based; conditions: 5 μg/mL, 24 hr, relative to vehicle control (0.1% v/v DMSO)
Method: Normalized reactive oxygen species (ROS) activity in follicle dermal papilla cells were analyzed after treatment with 5 μg/mL example compounds relative to vehicle control (0.1% v/v DMSO) after 24 hr. The increase in ROS levels is harmful to cell homeostasis, structures, and functions and results in oxidative stress.

[2] = test system: human hair follicle dermal papilla cells (hFDPC); assay: Human follicle dermal papilla cells (hFDPC) proliferation assay; type: cell-based; conditions: hFDPCs supplemented with BIO, BMP-2 and FGFβ
Excerpt: In Table 8, A represents less than 20% of increased proliferation of hFDPCs, B represents 20-40%, and C represents larger than 40% of increased proliferation of hFDPCs.

[3] = test system: TK.6 lymphoblasts; assay: TK.6 micronucleus assay; type: cell-based
Method: (§1) The safety/toxicology profiles of a compound or salt of the present disclosure was evaluated via a series of in vitro genotoxicity assays, including the SOS-chromotest to determine bacterial genotoxicity, and the TK.6 micronucleus assay to determine chromosomal damage and forward mutations. Standard reactive oxygen species (ROS) and caspase 3/7 assay were conducted to determine general cellular toxicity. Moreover, a series of sensitization tests were conducted to predict any potential skin sensitivity. These include the direct peptide reactivity assay to evaluate haptenization, the KeratinoSens reporter assay to determine potential sensitivity via the activation of a cytoprotective pathway, and an immunological assay using human immature monocyte-derived dendritic cells to evaluate any potential immunogenicity.
TK.6 lymphoblasts are a well-studied cell line commonly used for gene mutation analyses. They are heterozygous for the thymidine kinase gene (TK) and enable the detection of forward mutations and chromosomal damage, which manifests as micronuclei and are detectable via flow cytometry.
TK.6 cells were dosed with the example compounds or a vehicle control (0.1% v/v DMSO) and cultured with or without S9 metabolic activation for 24 hr. […] Methyl methanesulfonate, a known genotoxic, alkylating agent was used as a positive control for micronuclei detection.
The micronucleus assay was also performed to determine if the compounds are genotoxic by evaluating the presence of micronuclei. […] In combination. […] I-17 elicited genotoxicity at >3.125 μg/mL.

[4] = test system: HepG2 cells; assay: Caspase 3/7 activity in HepG2 cells; type: cell-based; conditions: HepG2, >2-log concentration range, versus % v/v-matched DMSO
Method: (§2) Cells were treated with either the example compounds or vehicle control containing correspondingly % v/v-matched amounts of DMSO spanning a >2-log concentration range. Data represents mean±s.d. and representative of at least 2 experimental replicates.
as §2, with “HepG2 cells are an immortalized liver cell line commonly used to study apoptosis induced by small molecules. Cells” for “Cells”

[5] = test system: bacteria; assay: SOS chromotest (bacteria-based genotoxicity test, β-galactosidase activity); type: cell-based; conditions: varying concentrations; 4-NQ as known genotoxin
Method: The SOS chromotest is a well-established bacteria-based test for genotoxicity.
as §1

[6] = test system: Nrf2-ARE pathway; assay: KeratinoSens Nrf2-ARE reporter assay (ARE-luciferase); type: cell-based; conditions: cinnamic aldehyde as known sensitizing compound
Method: as §1
The Nrf2-ARE pathway is a master regulator of cytoprotective responses to oxidative stress, and is an early indicator of skin sensitization. Nrf2 (nuclear factor erythroid 2-related factor) is a transcription factor that binds to antioxidant responsive elements (ARE). By fusing ARE to the light-producing luciferase gene, a KeratinoSens Nrf2-ARE reporter assay was performed whereby luciferase signal is directly correlated to Nrf2-ARE pathway activation. Normalized ARE-luciferase activity was measured using a known sensitizing compound (cinnamic aldehyde) and example compounds.

[7] = Clinical consumer perception study; type: in vivo, human
Method: The clinical test was performed by Eurofins|CRL, Inc. The test followed established, standardized procedures for clinical testing designed to ensure the well-being of clinical study subjects and the generation of reliable study data. Subjects were female and ranged in age from 27-65 years. Subjects used a simple, water-based formula containing an example compound, VII-3 (at 0.02% v/v) every 2 days in the morning or night on dry or towel-dried hair. Approximately 2 mL was applied directly to the hairline. No randomization was required for the study and subjects were blinded to the name of the test material.
Photographs of subjects' hair were taken 6 weeks after the treatment with the representative compounds (FIG. 6). Subjects were female and ranged in age from 27-65 years. Subjects used a simple, water-based formula containing an example compound VII-3 (at 0.02% v/v) every 2 days in the morning or night on dry or towel-dried hair. Approximately 2 mL was applied directly to the hairline. No randomization was required for the study and subjects were blinded to the name of the test material. FIG. 6. highlights specific regions of the included participants' scalps, juxtaposing pictures taken before and after the study. Based on clinical surveys, 97% of women reported an improvement in their hair's appearance while 82% reported increased hair growth and thickness.
After the conclusion of the study, subjects completed a Consumer perception questionnaire. Table 24 includes percentages of each response for the corresponding prompt in the questionnaire. The specific response choice is specified within the parentheses below the percentage.

[8] = test system: Human follicle papilla cells; assay: Functional stability: follicle papilla cell proliferation after pH and temperature pre-treatment of the compound; type: cell-based; conditions: prepared in DMSO, DMI or 1:1 DMI/ethanol, diluted in pH-adjusted water, varying temperatures, 7 days; cells dosed 5 μg/mL, 48 hr
Method: Compound VII-3 was prepared in various solvents (DMSO; dimethyl sulfoxide, DMI; dimethyl isosorbide, or a 1:1 mixture of dimethyl isosorbide and ethanol), the diluted in pH-adjusted water and left at varying temperatures for 7 days. Human follicle papilla cells were dosed at 5 μg/mL with the example compound and further supplemented with 6-bromoindirubin-39-Oxime (BIO), recombinant bone morphogenetic protein-2 (BMP-2), and basic fibroblast growth factor (FGFβ), whose combination was previously found to preserve in vivo dermal papilla gene signatures. Normalized proliferation follicle papilla cell proliferation was analyzed after 48 hr following the treatment with the example compound pre-treated across a range of pH conditions (FIG. 7A) and temperature conditions (FIG. 7B). Data represents mean±s.d. and representative of n=2 donors.

[9] = response: I haven't noticed a change

C=CCc1cc(/C=C2\C(=O)NC(=S)N(c3ccccc3OC)C2=O)cc(OCC)c1O [I-18]
Normalized reactive oxygen species (ROS) activity [1]: higher than other compounds
Percent Increase Proliferation of hFDPCs (%) [2]: B (B represents 20-40%)

CCC(=O)N1CCN(c2nnc(-c3ccc(C)cc3)c3ccccc23)CC1 [II-4, 1-Propanone, 1-[4-[4-(4-methylphenyl)-1-phthalazinyl]-1-piperazinyl]-]
micronuclei formation / genotoxic effect in TK.6 cells [3]: do not promote any micronuclei formation
Normalized caspase 3/7 activity [4]: did not exhibit any caspase activation
Percent Increase Proliferation of hFDPCs (%) [2]: B (B represents 20-40%)
genotoxic effects in SOS chromotest (normalized β-galactosidase activity) [5]: did not exhibit any genotoxic effects

COC(=O)c1c(S(C)(=O)=O)[nH]c(-c2ccccc2)nc1=O [VII-1, 5- Pyrimidinecarboxylic acid, 1,4-dihydro-6-(methylsulfonyl)-4-oxo-2-phenyl-, methyl ester]
micronuclei formation / genotoxic effect in TK.6 cells [3]: do not promote any micronuclei formation
Normalized caspase 3/7 activity [4]: did not exhibit any caspase activation
Percent Increase Proliferation of hFDPCs (%) [2]: C (C represents larger than 40% of increased proliferation of hFDPCs)
genotoxic effects in SOS chromotest (normalized β-galactosidase activity) [5]: did not exhibit any genotoxic effects
sensitizing potential (normalized ARE-luciferase activity) [6]: exhibited sensitizing potential

CSc1nc(-c2ccco2)nn1S(C)(=O)=O [VII-3, 1H-1,2,4-Triazole, 3-(2-furanyl)-1-(methylsulfonyl)-5-(methylthio)-]
Since the beginning of the study, I have noticed a decrease of the number of hairs lost in the shower. ([7]; response: Agree): 53.1%
Since the start of the study, I can see more hair in the areas where the serum was applied. ([7]; response: Agree): 53.1%
Since the beginning of the study, I have noticed a decrease of the number of hairs lost in the shower. ([7]; response: Disagree): 6.3%
Since the start of the study, I can see more hair in the areas where the serum was applied. ([7]; response: Disagree): 3.1%
Because of the treatment I have received since the start of the study, the appearance of my hair is: ([7]; response: Fuller): 56.3%
Since the beginning of the study, I have noticed a decrease of the number of hairs lost in the shower. [7, 9]: 21.9%
Since the start of the study, I can see more hair in the areas where the serum was applied. [7, 9]: 31.3%
Since the start of the study, how effective do you think the treatment has been in increasing your hair growth/thickness? ([7]; response: Not effective at all): 0%
Since the start of the study, how effective do you think the treatment has been in slowing down your hair loss? ([7]; response: Not effective at all): 3.1%
Since the start of the study, how effective do you think the treatment has been in increasing your hair growth/thickness? ([7]; response: Not very effective): 18.8%
Since the start of the study, how effective do you think the treatment has been in slowing down your hair loss? ([7]; response: Not very effective): 15.6%
Since the start of the study, how effective do you think the treatment has been in increasing your hair growth/thickness? ([7]; response: Somewhat effective): 71.9%
Since the start of the study, how effective do you think the treatment has been in slowing down your hair loss? ([7]; response: Somewhat effective): 53.1%
Because of the treatment I have received since the start of the study, the appearance of my hair is: ([7]; response: Stronger): 21.9%
Since the beginning of the study, I have noticed a decrease of the number of hairs lost in the shower. ([7]; response: Strongly Agree): 18.8%
Since the start of the study, I can see more hair in the areas where the serum was applied. ([7]; response: Strongly Agree): 12.5%
Since the beginning of the study, I have noticed a decrease of the number of hairs lost in the shower. ([7]; response: Strongly Disagree): 0%
Since the start of the study, I can see more hair in the areas where the serum was applied. ([7]; response: Strongly Disagree): 0%
Because of the treatment I have received since the start of the study, the appearance of my hair is: ([7]; response: Thicker): 18.8%
Because of the treatment I have received since the start of the study, the appearance of my hair is: ([7]; response: Thinner): 3.1%
Since the start of the study, how effective do you think the treatment has been in increasing your hair growth/thickness? ([7]; response: Very effective): 9.4%
Since the start of the study, how effective do you think the treatment has been in slowing down your hair loss? ([7]; response: Very effective): 28.1%
Because of the treatment I have received since the start of the study, the appearance of my hair is: ([7]; response: Weaker): 0%
Subjects with tight hairstyles who noticed less shedding ([7]; water-based formula 0.02% v/v every 2 days, 6 weeks, 32 female subjects): 28/32 (87%)
Adverse effects ([7]; water-based formula 0.02% v/v every 2 days, 6 weeks, 32 subjects completed): 0/32 (0%)
functional stability (normalized follicle papilla cell proliferation after pre-treatment of the compound) [8]: functionally stable across physiologically-relevant pH and temperature ranges
Normalized caspase 3/7 activity [4]: did not exhibit any caspase activation
Percent Increase Proliferation of hFDPCs (%) [2]: B (B represents 20-40%)
genotoxic effects in SOS chromotest (normalized β-galactosidase activity) [5]: did not exhibit any genotoxic effects

COc1ccc(CCCc2nc3ccccc3[nH]2)cc1 [VII-14, 1H-Benzimidazole, 2-[3-(4-methoxyphenyl)propyl]-]
micronuclei formation / genotoxic effect in TK.6 cells [3]: do not promote any micronuclei formation
Normalized caspase 3/7 activity [4]: did not exhibit any caspase activation
Percent Increase Proliferation of hFDPCs (%) [2]: A (A represents less than 20% of increased proliferation of hFDPCs)
